Key:
[1] = test system: MDA-MB-231 cells; assay: Extracellularly released ATP (ICD biomarker) after DOX or CIS; type: cell-based, human; settings: different concentrations of drug
Experimental: (§1) First, the efficacy of doxorubicin (DOX) as a potent ICD inducer in a breast cancer 4T1 tumor model and cancer cells was tested by monitoring the change in the TME (tumor microenvironment). To validate the immunogenic effect of DOX, immunogenic cell death (ICD) biomarkers, such as extracellularly released ATP and cell surface expressing CRT, were monitored in breast cancer cells (human: MDA-MB-231 cells; mouse: 4T1 cells) treated with different concentrations of DOX and cisplatin (CIS), a non-ICD inducer, as a comparative control group.

[2] = test system: 4T1 cells; assay: as above; type: cell-based, mouse; settings: different concentrations of drug
Experimental: as §1

[3] = test system: MDA-MB-231 cells; assay: Cell surface CRT expression (ICD biomarker) after DOX or CIS; type: cell-based, human; settings: different concentrations of drug
Experimental: as §1

[4] = test system: 4T1 cells; assay: as above; type: cell-based, mouse; settings: different concentrations of drug
Experimental: as §1

[5] = test system: 4T1 cells; assay: Vaccine approach: tumor growth in Balb/c mice vaccinated with drug-treated dead 4T1 cells; type: in vivo; settings: DOX 30 μM or CIS 100 μM; live 4T1 cells in opposite flank; 25 days
Experimental: (§2) The effect of DOX-induced ICD in Balb/c mice was further validated by vaccine approach. Dead 4T1 cells were subcutaneously injected into one flank of Balb/c mice together with an anticancer agent such as DOX (30 μM) or CIS (100 μM), or phosphate-buffered saline (PBS; control), twice for 2 weeks, with a 1-week interval. At two weeks after the first injection, live 4T1 cancer cells were injected into the opposite flank and the change in tumor size was evaluated for 25 days.

[6] = test system: IDO1; assay: IDO1 expression in tumors obtained by vaccine approach; type: in vivo, Balb/c mice; settings: mice vaccinated with drug-treated 4T1 cells
Experimental: as §2
(§3) Subsequently, it was investigated whether the DOX-induced ICD can induce the expression of IDO1 in a breast cancer mouse model as an indicator of the immune evasion mechanism in TME. In order to investigate the relationship between the expression of ICD and IDO1 in TME, the expression level of IDO1 in the tumors obtained by vaccine approach was investigated, and the result is shown in FIG. 4. […] Meanwhile, it was confirmed that the DOX-induced ICD upregulates IDO1 expression in tumor tissues via the immune evasion mechanism.

[7] = test system: MDA-MB-231 cells; assay: Intracellular distribution of DOX by confocal microscopy; type: cell-based, human
Experimental: (§4) In order to investigate the intracellular distribution of DOX and IDO1 siRNA delivered by the CD44/PD-L1 aptamosome, cells were treated with free DOX, Lipm [DOX/IDO1] and Aptm [DOX/IDO1] and analyzed by confocal microscopy with increasing incubation time. […] Nevertheless, a large amount of DOX was delivered easily by Aptm [DOX/IDO1] with the passage of time, and it was gradually delivered into the nucleus of MDA-MB-231 and 4T1 cells within 2 hours.

[8] = test system: 4T1 cells; assay: as above; type: cell-based, mouse
Experimental: as §4

[9] = test system: breast cancer cells; assay: DOX-induced ICD: extracellular ATP release after liposome treatment; type: cell-based
Experimental: Then, DOX-induced ICD was evaluated by monitoring extracellular ATP release and expression of cell surface CRT, which is an ICD marker, and the result is shown in FIG. 14.

[10] = test system: MDA-MB-231; assay: Cytotoxicity (cell survivability); type: cell-based, human; settings: 24 hours and 36 hours
Experimental: (§5) Next, the cytotoxicity by an anticancer agent delivered together with Aptm [DOX/IDO1] was evaluated, and the result is shown in FIG. 16. Breast cancer cells (MDA-MB-231 and 4T1) and control group liver cells (HepG2) were treated with free DOX, Lipm [DOX/IDO1] and Aptm [DOX/IDO1] for 24 hours and 36 hours.

[11] = test system: 4T1; assay: Cytotoxicity (cell survivability); type: cell-based, mouse; settings: 24 hours and 36 hours
Experimental: as §5

[12] = test system: control group liver cells (HepG2); assay: Cytotoxicity (cell survivability); type: cell-based; settings: 24 hours and 36 hours
Experimental: as §5

[13] = test system: 4T1 tumor; assay: Anticancer efficacy in 4T1 tumor xenograft mice (tumor size); type: in vivo; settings: i.v. 4 times with 4-day intervals; DOX 0.3 mg/kg, siRNA 0.35 mg/kg; day 24
Experimental: In addition, the anticancer efficacy of Aptm [DOX/IDO1] in the 4T1 tumor xenograft mice was investigated by measuring the decrease of tumor size, and the result is shown in FIG. 18. After the tumor size grew to 60-80 mm^3, the mice were divided randomly into 5 groups (5 mice per group) and each reagent was intravenously 4 times with 4-day intervals: saline (control group), free DOX (0.3 mg/kg), Lipm [DOX/IDO1], Aptm [DOX/IDO1] and Aptm [DOX/Ctr], each liposome containing the same amount of DOX (0.3 mg/kg) and siRNA (0.35 mg/kg). […] Morbidity was not observed when the mice were treated with Aptm [DOX/IDO1]. In particular, when the mice were treated with Aptm [DOX/Ctr] containing scrambled siRNA instead of IDO1 siRNA, the tumor size decreased by about 37.0% (vs. saline administration) due to decreased effect of inhibiting tumor growth. That is, the delivered IDO siRNA inhibits tumor growth by controlling TME.

[14] = test system: TNFα; assay: TNFα secretion in the tumor of 4T1 tumor xenograft mice; settings: mouse, in vivo
Experimental: As the effect of Aptm [DOX/IDO1] on the control of tumor microenvironment (TME), cell death, ICD marker, immune cell ratio and TNF secretion in the tumor tissue of 4T1 tumor xenograft mice were evaluated. In order to investigate DOX-induced apoptotic cell death, TUNEL assay was conducted with the tumor tissues of 4T1 tumor xenograft mice.
(§6) The effective inhibition of tumor growth improves anticancer immune response by reversing immunosuppressive TME to immunoresponsive TME in vivo by Aptm [DOX/IDO1]. In order to investigate whether tumor size reduction and TME control are mediated by IDO1 siRNA delivered to the 4T1 tumor xenograft mice, the IDO1 expression level in the tumor tissue of the mice was analyzed on day 24, and the result is shown in FIG. 20. The IDO1 expression level in the tumor obtained from the mice treated with free DOX was increased as compared to the IDO1 expression level in the tumor obtained from the mice treated with saline. […] In the tumor, the IDO1 expression was increased by the administration of Aptm [DOX/Ctr] lacking IDO1 siRNA. It is thought that the increased IDO1 expression is due to the improved ICD against the tumor due to the effective delivery of DOX using the CD44/PD-L1 aptamosome. Accordingly, the inhibition of IDO1 in combination with ICD can induce anticancer immune response in the immunoresponsive TME by Aptm [DOX/IDO1].

[15] = test system: IDO1; assay: IDO1 expression level in tumor tissue of 4T1 tumor xenograft mice; type: in vivo; settings: day 24
Experimental: as §6

[16] = test system: 4T1 breast cancer cells; assay: Tumor metastasis to the lung in 4T1 tumor-bearing mice (H&E); type: in vivo; settings: H&E staining of lung tissue
Source text: Finally, it was investigated whether the administration of Aptm [DOX/IDO1] can inhibit tumor metastasis in 4T1 tumor-bearing mice. For detection of metastatic tumors, tumor tissues from the terminal part of the lung of the mice were stained with hematoxylin and eosin (H&E), and the images are shown in FIG. 21. […] Therefore, it was confirmed that the systemic administration of Aptm [DOX/IDO1] through the blood can inhibit tumor metastasis through targeted delivery of an anticancer drug targeting breast cancer cells.

[17] = test system: MDA-MB-231 cells; assay: IDO1 and PD-L1 expression under IFNγ stimulation; type: cell-based, human
Source text: (§7) ICD-mediated immune response can invalidate the immune evasion mechanism of TME, such as overexpression of the immune checkpoint protein and IDO1. Accordingly, the expression of IDO1 and PD-L1 under IFNγ stimulation was monitored also in MDA-MB-231 and 4T1 cells.
as §3

[18] = test system: 4T1 cells; assay: IDO1 and PD-L1 expression under IFNγ stimulation; type: cell-based, mouse
Source text: as §7, §3

Compound | level of extracellularly released ATP [1] | level of extracellularly released ATP [2] | CRT expression on the cancer cell surface [3] | CRT expression on the cancer cell surface [4] | tumor growth after vaccination with drug-treated dead 4T1 cells [5] | IDO1 protein and mRNA expression in tumor tissues [6] | time until DOX reached the nucleus [7] | time until DOX reached the nucleus [8] | extracellular ATP release [9] | cell survivability [10] | cell survivability [11] | cell survivability [12] | tumor size decrease as compared to saline [13] | TNFα secretion in the tumor [14] | IDO1 expression level in the tumor [15] | metastatic tumor in the lung [16] | expression level of IDO1 ([17]; IFNγ stimulation) | PD-L1 expression on the cell surface ([17]; IFNγ-treated cells) | expression level of IDO1 ([18]; IFNγ stimulation) | PD-L1 expression on the cell surface ([18]; IFNγ-treated cells)
N.N.[Cl][Pt][Cl] [CIS, cisplatin] | did not increase the level of extracellular ATP | did not increase the level of extracellular ATP | did not increase the CRT expression on the cancer cell surface | did not increase the CRT expression on the cancer cell surface | did not inhibit tumor growth significantly | increased expression of IDO1 protein and mRNA | – | – | – | – | – | – | – | – | – | – | – | – | – | –
COc1cccc2c1C(=O)c1c(O)c3c(c(O)c1C2=O)C[C@@](O)(C(=O)CO)C[C@@H]3O[C@H]1C[C@H](N)[C@H](O)[C@H](C)O1 [DOX, doxorubicin] | increased gradually with the concentration of DOX | increased gradually with the concentration of DOX | increased gradually as the concentration of DOX increased | increased gradually as the concentration of DOX increased | effectively inhibited tumor growth | highest IDO1 protein and mRNA expression | up to 1 hour | up to 1 hour | A large amount of ATP was released | lowest | lowest | lowest | did not reduce tumor size enough | relatively low TNFα secretion | increased | extensive filtration of 4T1 breast cancer cells was observed in the lung | – | – | – | –
IFNγ: cytokine used to stimulate IDO1 and PD-L1 expression in cancer cells | – | – | – | – | – | – | – | – | – | – | – | – | – | – | – | – | significantly upregulated | highly expressed | significantly upregulated | highly expressed
